# From ChEMBL document CHEMBL1201862, “PubChem BioAssay data set” (2004)
# The source made the active and inactive calls.
# Columns and labels:
# [1] = biological target: Insulin-like growth factor 1 receptor (Homo sapiens, UniProt P08069); experiment: Navigating the Kinome. Panel member name: IGF1R; assay type: functional
# [2] = Luminescence Cell-Based Dose Confirmation HTS to Identify Activators of 5'UTR Stem-Loop Driven Alpha-Synuclein mRNA Translation in H4 Neuroglioblastoma Cells. [Related pubchem assays: 1829 (Project Summary), 1814 (Primary HTS)]; assay type: functional
# Streptococcus = experiment: Group A Streptococcus viability loss, dose response, counter-screen for streptokinase expression inhibitor project, luminescence, BacTiterGlo (AID 1915); assay type: functional, organism-based;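 further: potency for reduction of bacterial viability or growth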
# Streptokinase A = biological target: T1, Streptokinase A (Streptococcus pyogenes serotype M1, UniProt P10520); experiment: S. pyogenes streptokinase expression inhibitors, potency, dose response, plasminogen activation absorbance, OD405 (AID 1914); assay type: functional, Streptococcus pyogenes M1 GAS;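 further: secreted streptokinase activity via plasminogen activation per viability signal from cell pellet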
# T1 sequence (P10520 whole entry): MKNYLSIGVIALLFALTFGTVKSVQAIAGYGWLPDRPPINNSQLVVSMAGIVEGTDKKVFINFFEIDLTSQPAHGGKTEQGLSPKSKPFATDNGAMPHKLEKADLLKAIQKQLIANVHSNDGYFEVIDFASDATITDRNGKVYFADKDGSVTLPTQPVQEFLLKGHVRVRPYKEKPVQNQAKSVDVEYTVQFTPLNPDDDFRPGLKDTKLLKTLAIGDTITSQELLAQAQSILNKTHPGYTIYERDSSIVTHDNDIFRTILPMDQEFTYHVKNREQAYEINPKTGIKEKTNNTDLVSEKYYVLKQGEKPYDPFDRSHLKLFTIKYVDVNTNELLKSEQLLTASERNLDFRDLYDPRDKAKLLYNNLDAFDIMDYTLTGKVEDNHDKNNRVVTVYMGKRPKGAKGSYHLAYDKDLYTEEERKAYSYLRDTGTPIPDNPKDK
# [3] = system: Streptococcus sp. 'group A'; experiment: growth inhibition of control SK(-) GAS strain, dose response, counter-screen for streptokinase expression inhibitor project, luminescence, kanamycin, BacTiterGlo, confirmation (AID 1900); assay type: functional, organism-based
# H4 = experiment: Luminescence Cell-Based Dose Response HTS to Identify Activators of 5'UTR Stem-Loop Driven Prion Protein mRNA Translation in H4 Neuroglioblastoma Cells. [Related pubchem assays: 1829 (Project Summary), 1814 (Primary HTS)]; assay type: functional; settings: Homo sapiens
# [4] = biological target: Eukaryotic translation initiation factor 4E (Mus musculus, UniProt P63073); experiment: eIF4E–eIF4G protein interaction inhibitors, dose response, biochemical, TR-FRET (AID 855); assay type: functional;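 further: potency for disrupting eIF4E binding to eIF4GI seen as loss of FRET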
# cells [5] = assay type: functional, cell-based
# HEK293 [6] = experiment: SAR Analysis of small molecule inhibitors of T-cell specific antigen receptor-induced NF-kB activation in a HEK-293T cell line using a luminescence assay - Set 2. [Related pubchem assays (depositor defined):AID435003, AID435012, AID489026]; assay type: functional, cell-based; settings: Homo sapiens
# [7] = HepG2 cell cytotoxicity, dose response, cytotoxicity control for Shn3 inhibitor project, CellTiter-Glo, cherry-picked (AID 624134); assay type: functional, cell-based
# [8] = Counterscreen for AddAB inhibitors: absorbance-based bacterial cell-based high throughput dose response assay for inhibitors of bacterial viability. [Related pubchem assays (depositor defined):AID435030, AID449728, AID449731, AID488942, AID488955, AID488956]; assay type: functional
# cells [9] = assay type: functional, cell-based; remark: listed apart in the source
# [10] = biological target: Heat shock protein HSP 90-alpha (Homo sapiens, UniProt P07900); assay type: functional, organism-based
# [11] = control 3'UTR Renilla luciferase suppression, dose response, counter-screen for Shn3 inhibitor project, cell-based, Clone20-Shn3RL, cherry-picked (AID 624133); assay type: functional
# HEK293 [12] = experiment: cytotoxicity in HEK293T NF-kB-Luc cells, SAR follow-up, cytotoxicity control for NF-kB activator project, cell-based, resazurin fluorescence (AID 493251); assay type: functional
# Jurkat = experiment: SAR Analysis of small molecule inhibitors of T-cell specific antigen receptor-induced NF-kB activation in a Jurkat cell line using a luminescence assay - Set 2. [Related pubchem assays (depositor defined):AID435003, AID435012, AID465]; assay type: functional, cell-based; settings: Homo sapiens
# [13] = biological target: T2, Histone-lysine N-methyltransferase NSD2 (Homo sapiens, UniProt O96028); assay type: biochemical
# T2 sequence (O96028 whole entry): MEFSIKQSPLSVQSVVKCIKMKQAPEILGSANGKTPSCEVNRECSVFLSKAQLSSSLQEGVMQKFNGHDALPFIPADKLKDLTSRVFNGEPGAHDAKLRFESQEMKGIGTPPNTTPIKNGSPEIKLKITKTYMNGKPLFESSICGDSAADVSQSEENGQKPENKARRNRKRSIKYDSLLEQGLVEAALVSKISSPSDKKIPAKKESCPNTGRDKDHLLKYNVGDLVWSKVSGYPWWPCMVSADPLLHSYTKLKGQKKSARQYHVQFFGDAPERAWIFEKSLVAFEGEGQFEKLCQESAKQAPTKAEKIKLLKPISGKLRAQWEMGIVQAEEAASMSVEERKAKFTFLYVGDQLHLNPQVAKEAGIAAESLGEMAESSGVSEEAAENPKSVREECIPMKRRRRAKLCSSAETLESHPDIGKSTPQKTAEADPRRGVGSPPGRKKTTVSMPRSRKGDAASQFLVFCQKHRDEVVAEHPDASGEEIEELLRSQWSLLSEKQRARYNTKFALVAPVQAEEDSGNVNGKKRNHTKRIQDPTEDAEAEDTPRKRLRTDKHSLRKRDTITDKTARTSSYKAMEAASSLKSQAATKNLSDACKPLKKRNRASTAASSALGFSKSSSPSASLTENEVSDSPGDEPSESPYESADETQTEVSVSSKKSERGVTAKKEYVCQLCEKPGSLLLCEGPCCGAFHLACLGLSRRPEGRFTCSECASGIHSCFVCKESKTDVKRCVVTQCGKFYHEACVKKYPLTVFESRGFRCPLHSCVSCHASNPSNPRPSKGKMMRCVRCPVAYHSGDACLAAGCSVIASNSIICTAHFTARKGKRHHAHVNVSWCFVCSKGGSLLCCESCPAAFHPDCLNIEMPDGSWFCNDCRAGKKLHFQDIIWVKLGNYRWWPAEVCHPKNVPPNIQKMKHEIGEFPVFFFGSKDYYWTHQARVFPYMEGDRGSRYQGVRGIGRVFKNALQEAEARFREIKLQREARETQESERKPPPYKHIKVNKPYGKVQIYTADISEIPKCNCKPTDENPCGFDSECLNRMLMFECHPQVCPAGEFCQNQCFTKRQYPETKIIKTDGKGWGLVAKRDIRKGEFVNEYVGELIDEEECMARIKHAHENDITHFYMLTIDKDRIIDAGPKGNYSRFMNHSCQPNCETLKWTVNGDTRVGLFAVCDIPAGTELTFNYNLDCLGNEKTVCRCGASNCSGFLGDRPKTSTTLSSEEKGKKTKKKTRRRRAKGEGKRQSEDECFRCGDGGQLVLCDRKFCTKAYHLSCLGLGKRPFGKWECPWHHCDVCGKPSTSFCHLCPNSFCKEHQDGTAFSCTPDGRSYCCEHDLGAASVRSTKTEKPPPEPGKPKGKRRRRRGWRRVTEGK
# Eukaryotic translation initiation factor 4E, sequence (P63073 whole entry): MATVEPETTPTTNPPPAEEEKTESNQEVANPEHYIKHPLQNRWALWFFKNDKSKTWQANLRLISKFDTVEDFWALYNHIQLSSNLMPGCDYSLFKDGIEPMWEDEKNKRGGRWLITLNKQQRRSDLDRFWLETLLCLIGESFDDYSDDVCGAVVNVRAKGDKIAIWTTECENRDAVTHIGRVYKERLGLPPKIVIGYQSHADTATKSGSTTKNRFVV
# Insulin-like growth factor 1 receptor, sequence (P08069 31-736 limits assumed): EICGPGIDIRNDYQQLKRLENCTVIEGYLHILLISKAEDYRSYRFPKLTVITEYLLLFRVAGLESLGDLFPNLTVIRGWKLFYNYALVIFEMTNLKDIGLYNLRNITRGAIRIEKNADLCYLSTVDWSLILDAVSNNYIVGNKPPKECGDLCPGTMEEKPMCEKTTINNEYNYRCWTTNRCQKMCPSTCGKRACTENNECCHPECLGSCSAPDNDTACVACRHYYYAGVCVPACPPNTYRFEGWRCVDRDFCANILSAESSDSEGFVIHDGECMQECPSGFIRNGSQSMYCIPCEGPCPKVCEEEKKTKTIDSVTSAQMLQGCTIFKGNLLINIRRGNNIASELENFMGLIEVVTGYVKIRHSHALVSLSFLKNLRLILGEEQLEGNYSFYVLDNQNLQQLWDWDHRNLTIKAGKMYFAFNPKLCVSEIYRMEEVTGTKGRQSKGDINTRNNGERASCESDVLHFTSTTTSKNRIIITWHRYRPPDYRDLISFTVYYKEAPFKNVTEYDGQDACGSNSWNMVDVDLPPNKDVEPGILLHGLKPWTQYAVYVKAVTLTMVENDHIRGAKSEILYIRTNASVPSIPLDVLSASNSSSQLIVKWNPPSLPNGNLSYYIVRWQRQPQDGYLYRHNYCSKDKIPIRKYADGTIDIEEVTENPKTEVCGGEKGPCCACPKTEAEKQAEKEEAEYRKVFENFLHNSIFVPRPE
# Insulin-like growth factor 1 receptor, sequence (P08069 741-1367 limits assumed): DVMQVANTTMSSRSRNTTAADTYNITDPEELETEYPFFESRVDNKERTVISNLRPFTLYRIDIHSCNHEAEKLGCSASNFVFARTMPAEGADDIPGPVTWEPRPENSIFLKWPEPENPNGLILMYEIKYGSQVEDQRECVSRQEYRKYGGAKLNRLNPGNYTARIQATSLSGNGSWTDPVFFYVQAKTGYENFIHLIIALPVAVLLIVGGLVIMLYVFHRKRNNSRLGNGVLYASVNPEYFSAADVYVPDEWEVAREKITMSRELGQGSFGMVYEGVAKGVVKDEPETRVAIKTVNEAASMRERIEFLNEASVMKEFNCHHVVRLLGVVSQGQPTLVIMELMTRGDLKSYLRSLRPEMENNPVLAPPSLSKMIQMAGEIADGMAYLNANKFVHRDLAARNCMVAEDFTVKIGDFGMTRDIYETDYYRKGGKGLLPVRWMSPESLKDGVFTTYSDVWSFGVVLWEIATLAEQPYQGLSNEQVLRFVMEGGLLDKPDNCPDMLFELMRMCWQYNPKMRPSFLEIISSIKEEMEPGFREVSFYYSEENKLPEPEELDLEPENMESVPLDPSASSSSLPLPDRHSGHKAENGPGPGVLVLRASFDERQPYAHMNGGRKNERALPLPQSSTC
SMILES,EC50 [2],EC50 (Streptococcus),EC50 (Streptokinase A),EC50 [3],EC50 (H4),IC50 [4],EC50 (cells [5]),IC50 (HEK293 [6]),AC50 [7],IC50 [8],EC50 (cells [9]),AC50 [10],AC50 [11],"IC50 (HEK293 [12]; Homo sapiens, HEK293)",IC50 (Jurkat),AC50 [13],other results
Cc1cccc(NC(=O)Nc2ccc3c(c2)CCc2sc4ncnc(N)c4c2-3)c1,–,–,–,–,–,–,–,–,–,–,–,–,–,–,–,–,Ki [1]: > 2 µM (inactive)
Cc1ccc(-n2sc3ccccc3c2=O)cc1,> 120 µM (not active),3.63 µM (active),> 150 µM (not active),1.02 µM (active),88.2 µM (active),15.2 µM (active),–,–,–,–,–,–,–,–,–,–,–
CCC(=O)NC(c1ccc(C)cc1)c1ccc2cccnc2c1O (centres undefined),–,–,–,–,–,–,4.3 µM (active),7.02 µM (active),1.24 µM (active),> 119 µM (inactive),> 350 µM (not active),3.35 µM (active),0.383 µM (active),12.9 µM (active),3.26 µM (active),–,–
N/C(=N\N=C/c1ccc(-c2ccc(O)c(C(=O)O)c2)o1)N[N+](=O)[O-],–,–,–,–,–,63.6 µM (inactive),–,–,–,–,–,–,–,–,–,7.57 µM (active),–
CC(=O)N(/N=C1\Sc2ccccc2C1=O)c1ccccc1C,2.51 µM (active),–,–,–,33.4 µM (active),–,–,–,–,–,–,–,–,–,–,0.548 µM (active),–
CCCC(=O)NC(c1ccc(Cl)cc1)c1ccc2cccnc2c1O (centres undefined),–,30.1 µM (active),> 150 µM (not active),2.17 µM (active),–,–,5.77 µM (active),4.23 µM (active),1.17 µM (active),> 119 µM (inactive),> 350 µM (not active),4.04 µM (active),2.72 µM (active),8.63 µM (active),2.84 µM (active),–,IC50 (HEK293 [12]; hek293): 9.55 µM (active)
